Values belong to the molecule of their own block, whether it stands above or below them.
Legend:
Type in all cases: physicochemical
[1] = particle size distribution by laser diffraction (dry and wet method)
Method: The pulverized particles were dispersed by compressed air (0.4 MPa) and then, the dry particle size distribution was measured by a laser diffraction apparatus for measuring particle size distribution (LMS-30, SEISHIN ENTERPRISE CO., LTD.). On the other hand, the pulverized particles were dispersed in purified water by ultrasonic dispersion (30 seconds) and then, the wet particle size distribution was measured by a laser diffraction apparatus for measuring particle size distribution (SALD-2100, SHIMADZU CORPORATION). (3) Crystalline Properties The crystalline states of the bulk powder and the pulverized particles were measured by a X-ray powder diffraction apparatus (RAD-2VC, Rigaku Corporation) and a differential scanning calorimeters (DSC-60, SHIMADZU CORPORATION). […] As stated above, the dry method particle size distribution was measured by the laser diffraction scattering method (Dry method), while the wet method particle size distribution was measured by the laser diffraction method (Wet method). FIG. 32 represents the particle distribution of the bulk powder of phenytoin (OriB), the particle distribution of the phenytoin (Jet) pulverized by the dry method jet mill, and the particle distribution of the phenytoin (LN2) pulverized by the ultra low temperature medium grinding apparatus (LN2 bead mill) according to the present invention, wherein all the particle distributions were the results measured by the aforementioned dry method (Dry method). FIG. 33 represents the particle distribution of the bulk powder of phenytoin (OriB), the particle distribution of the phenytoin (Jet) pulverized by the dry method jet mill, and the particle distribution of the phenytoin (LN2) pulverized by the ultra low temperature medium grinding apparatus (LN2 bead mill) according to the present invention, wherein all the particle distribution were the results measured by the aforementioned wet method (Wet method). […]

[2] = dissolution test, pharmacopoeia second law (paddle method); conditions: 66.7 mg sample suspended in water with 0.1%(w/v) Tween80, 900 mL test liquid, 75 rpm
Method: In order to verify the degree of improvement of solubility of the concurrently pulverized materials, which was obtained by concurrently pulverizing the test compound (phenytoin) made by example 5 and the additive (Hypromellose-Acetate-Succinate (HPMCAS)), the dissolution test was carried out as follows. […] Then the suspension was put into a 900 mL test liquid (50 Mm phosphate buffer solution, pH6.8) and examined under the condition of 75 rpm in compliance with the pharmacopoeia second law (paddle method). A sample consisting of only a compound (phenytoin) to be pulverized was individually pulverized under the conditions shown in Example 5 to obtain a pulverized material, which was used to carry out the dissolution test as follows. A 66.7 mg sample of the pulverized material was suspended in the water, which contains a 0.1%(w/v) Tween80, to obtain a suspension. Then the suspension was put into the 900 mL test liquid and examined under the condition of 75 rpm in compliance with the pharmacopoeia second law (paddle method). […] Before the dissolution test of reference example 1 was carried out, the pulverized material prepared in reference example 1 was mixed with commercially available additives (lactose and L-HPC) in a vessel by hand. Then, the dissolution test was performed as for a mixture of the pulverized material and the additives.

[3] = crystalline properties by powder X-ray diffractometry and differential scanning calorimetry
Method: The pulverized particles were dispersed by compressed air (0.4 MPa) and then, the dry particle size distribution was measured by a laser diffraction apparatus for measuring particle size distribution (LMS-30, SEISHIN ENTERPRISE CO., LTD.). On the other hand, the pulverized particles were dispersed in purified water by ultrasonic dispersion (30 seconds) and then, the wet particle size distribution was measured by a laser diffraction apparatus for measuring particle size distribution (SALD-2100, SHIMADZU CORPORATION). (3) Crystalline Properties The crystalline states of the bulk powder and the pulverized particles were measured by a X-ray powder diffraction apparatus (RAD-2VC, Rigaku Corporation) and a differential scanning calorimeters (DSC-60, SHIMADZU CORPORATION). […] FIG. 34 represents the results of powder X-ray diffractometry (XRPD) of the original bulk of phenytoin (OriB), the phenytoin (Jet) pulverized by the dry method jet mill, and the phenytoin (LN2) pulverized by the ultra low temperature medium grinding apparatus (LN2 bead mill) according to the present invention, which were measured by a powder X-ray diffractometry device (RAD-2VC, Rigaku Corporation). […]

[4] = observation by scanning electron microscope (SEM); conditions: pulverized by the LN2 bead mill, SEM FIG. 2(B)
Description: The exterior appearance of pulverized particles on which platinum is deposited was observed by a scanning electron microscope (JSM-6060, JEOL LTD.).

particle diameter after individual pulverization ([1]; conditions of Example 5): ≤ 0.1 μm | solubility of the pulverized particles in dissolution test [2]: not improved, or rather became worse
Compound: O=C1NC(=O)C(c2ccccc2)(c2ccccc2)N1 [Reference example 1, phenytoin]

degree of crystallinity ([3]; from ΔH value versus original bulk, DSC): 81%
Compound: O=C1NC(=O)C(c2ccccc2)(c2ccccc2)N1 [phenytoin (Jet), phenytoin]

rate of submicron size particles relative to particles pulverized by the dry method [1]: three and a half times | percentage of the mass consisting of particles of 1 μm or below (rate of submicron size particles) ([1]; measured up to): up to 32% | crystalline transformation / crystalline descent ([3]; XRPD and DSC, before and after pulverization): crystalline descent was not found
Compound: O=C1NC(=O)C(c2ccccc2)(c2ccccc2)N1 [phenytoin (LN2), phenytoin]

dimension of the majority of the particles [4]: ≤ 1 μm
Compound: O=C1NC(=O)C(c2ccccc2)(c2ccccc2)N1 [phenytoin]
